{"source": "patent US8278301B2", "about": "“2-alkylbenzoxazole carboxamides as 5HT3 modulators” (Albany Molecular Research, Inc., priority 2006, dated 2012)", "key": {"[1]": {"target": "T1, human 5-HT3 receptor (Homo sapiens, UniProt P46098)", "T1 sequence (P46098 24-478)": "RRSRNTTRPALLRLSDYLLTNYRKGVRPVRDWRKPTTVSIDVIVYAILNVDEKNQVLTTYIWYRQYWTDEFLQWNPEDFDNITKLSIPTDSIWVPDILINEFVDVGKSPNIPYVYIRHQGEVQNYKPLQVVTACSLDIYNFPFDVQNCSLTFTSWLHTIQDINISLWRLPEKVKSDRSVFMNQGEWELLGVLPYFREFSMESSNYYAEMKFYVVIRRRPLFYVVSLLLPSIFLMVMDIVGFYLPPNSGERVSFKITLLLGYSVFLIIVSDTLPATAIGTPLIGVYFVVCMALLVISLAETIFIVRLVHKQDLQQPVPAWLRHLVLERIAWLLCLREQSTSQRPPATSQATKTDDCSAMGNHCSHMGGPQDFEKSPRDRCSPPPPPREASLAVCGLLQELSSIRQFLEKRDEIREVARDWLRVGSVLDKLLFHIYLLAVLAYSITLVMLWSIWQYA", "assay": "Compound affinity for the human 5-HT3 receptor (Assay B), SPA radioligand binding with [9-methyl-3H]BRL-43694", "parameters": "purchased Perkin Elmer", "protocol": "Compound Affinity for the Human 5-HT3 Receptor (Assay B)\nThe relative affinity of the various compounds for the human 5-HT3 receptor was measured in a radioligand binding assay, using a scintillation proximity assay (SPA) format. Test compounds were dissolved to 10 mM in 100% DMSO, then serially diluted at 10× assay concentrations in 100% DMSO in 96-well polypropylene plates and further diluted to 4× assay concentrations with the assay buffer. Samples were incubated in 50 mM Tris-HCl, pH 7.5, 3 mM MgCl2, 1 mM EDTA and 10% DMSO with 10 nM [9-methyl-3H]BRL-43694 (Perkin Elmer), 3 μg of human 5-HT3 receptor membranes (Perkin Elmer) and 0.5 mg/mL SPA beads (WGA PVT, Amersham Biosciences) in a final volume of 0.2 mL. Binding reactions were set up in wells of PicoPlates-96 (Perkin Elmer) by adding consecutively 50 μL of each competing compound or buffer, SPA beads, the radioligand and 5-HT3 receptor membranes. After 60-min incubation at room temperature on a Nutator mixer, plates were centrifuged for 15 min at 1,500 rpm, followed by incubation in the dark for 30 min. Radioactivity was counted in the TopCount microplate counter (Perkin Elmer) for 5 min. Total binding control contained buffer only; nonspecific binding was determined in the presence of 30 μM MDL-72222. Specific binding was determined by subtracting nonspecific binding from total binding. All experiments were performed in duplicate using ten concentrations of a competing ligand, with ondansetron included as a control in every run. IC50 values were determined from specific binding data using XLfit4.1 curve fitting software from IDBS Ltd. Ki values were then calculated from the Cheng-Prusoff equation.\n(§1) In the table below, the assay in which the data were obtained is shown (as A, B. C, or D) along with the data."}, "[2]": {"target": "T2, mouse 5-HT3 receptor (Mus musculus, UniProt P23979)", "T2 construct": "host or cells: mouse neuroblastoma cells (N1E-155 as printed)", "T2 sequence (P23979 24-489)": "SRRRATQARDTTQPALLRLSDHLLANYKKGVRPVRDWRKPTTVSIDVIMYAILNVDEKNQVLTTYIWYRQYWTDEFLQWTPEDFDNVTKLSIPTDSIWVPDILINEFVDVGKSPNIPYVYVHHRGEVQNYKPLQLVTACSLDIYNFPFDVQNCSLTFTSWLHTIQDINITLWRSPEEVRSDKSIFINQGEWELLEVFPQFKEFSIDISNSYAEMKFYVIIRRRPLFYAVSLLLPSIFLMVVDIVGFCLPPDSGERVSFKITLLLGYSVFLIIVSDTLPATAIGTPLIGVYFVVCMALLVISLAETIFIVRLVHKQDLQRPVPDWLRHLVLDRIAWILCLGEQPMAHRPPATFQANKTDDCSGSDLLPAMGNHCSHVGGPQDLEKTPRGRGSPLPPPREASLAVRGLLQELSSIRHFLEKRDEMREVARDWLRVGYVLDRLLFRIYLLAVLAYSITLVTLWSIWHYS", "assay": "Compound affinity for the mouse 5-HT3 receptor (Assay C), [3H]-GR65630 radioligand binding, Novoscreen", "conditions": "read-out: Mouse % Inhibition @ 100 nM", "protocol": "Compound Affinity for the Mouse 5-HT3Receptor (Assay C)\nCompounds were tested by Novoscreen Biosciences Corporation, 7170 Standard Drive, Hanover, Md. in a radioligand binding assay using the mouse 5-HT3 receptor derived from mouse neuroblastoma cells and [^3H]-GR65630 (ligand). The non-specific binding determinant was MDL 72222. Compounds were tested at a single concentration of 100 nM in duplicate. Percent inhibition is reported. In order to evaluate the relative affinity of the various compounds for the 5-HT3 receptor, N1E-155 cell lines were developed to express the target protein. For binding, these cells were homogenized, centrifuged and washed with buffer (20 mM HEPES, 150 mM NaCl, pH 7.4) then suspended in 0.5 mL of buffer and [^3H]-GR65630 added at a concentration of 3.5×10^−10 M. An initial single concentration of 10^−7 M of the test compound was then added. Incubation was carried out at room temperature for 60 minutes at 25° C. then was terminated by rapid removal of the incubation medium. Radioactivity was assessed using liquid scintillation spectrophotometry after exposure to scintillation cocktail for at least three hours. […] Ki values were then calculated from the Cheng-Prusoff equation. In all of the above binding studies the non-specific determinant was MDL-72222 (1.0 μM).\nas §1"}, "[3]": {"conditions": "Assay B, SPA, [9-methyl-3H]BRL-43694, Cheng-Prusoff, read-out: Human 5HT3 Ki"}, "[4]": {"conditions": "Assay C, single concentration 100 nM, in duplicate, [3H]-GR65630"}}, "note": "Counter-ions that a name gives are not always drawn. Like-named read-outs stand apart in the source and are kept apart here."}
{"smiles": "CN1[C@@H]2CCC[C@H]1C[C@@H](NC(=O)c1cccc3nc(C(C)(C)C)oc13)C2", "note": "[Example 37, Endo-N-(9-methyl-9-azabicyclo[3.3.1]non-3-yl)-2-tert-butyl benzoxazole-7-carboxamide Hydrochloride]", "values": [{"measurement": "Ki", "setting": "[1]; [3]", "value": 166, "unit": "nM"}]}
{"smiles": "CC1CC1c1nc2c(C(=O)NC3CN4CCC3CC4)cccc2o1", "note": "(racemic) [Example 14, (S)—N-(1-Azabicyclo[2.2.2]oct-3-yl)-2-(2-methylcyclopropyl)benzoxazole-4-carboxamide Hydrochloride]", "values": [{"measurement": "inhibition at 0.1 µM", "setting": "[2]", "value": 93.6, "unit": "%"}]}
{"smiles": "CCN(CC)Cc1nc2c(C(=O)N[C@H]3C[C@H]4CCC[C@@H](C3)N4C)cccc2o1", "note": "[Example 41, Endo-N-(9-Methyl-9-azabicyclo[3.3.1]nonan-3-yl)-2-(diethylaminomethyl)benzoxazole-4-carboxamide Hydrochloride]", "values": [{"measurement": "Ki", "setting": "[1]", "value": 15.3, "unit": "nM"}]}
{"smiles": "CN1CCCCC1c1nc2c(C(=O)N[C@H]3C[C@H]4CCC[C@@H](C3)N4C)cccc2o1", "note": "(mixture of isomers) [Example 33, Endo-N-(9-Methyl-9-azabicyclo[3.3.1]nonan-3-yl)-2-(1-methylpiperidin-2-yl)benzoxazole-4-carboxamide Hydrochloride]", "values": [{"measurement": "Ki", "setting": "[1]", "value": 21.6, "unit": "nM"}]}
{"smiles": "O=C(N[C@@H]1CN2CCC1CC2)c1cccc2oc(C3CCOCC3)nc12", "note": "[Example 25, (S)—N-(1-Azabicyclo[2.2.2]oct-3-yl)-2-(tetrahydro-2H-pyran-4-yl)benzoxazole-4-carboxamide Hydrochloride]", "values": [{"measurement": "Ki", "setting": "[1]; [3]", "value": 126, "unit": "nM"}]}
{"smiles": "CCN1C2CCCC1CC(NC(=O)c1cccc3oc(C4CC4)nc13)C2", "note": "(stereo not drawn) [Example 21, N-(9-Ethyl-9-azabicyclo[3.3.1]non-3-yl)-2-cyclopropylbenzoxazole-4-carboxamide Hydrochloride]", "values": [{"measurement": "inhibition at 0.1 µM", "setting": "[2]; [4]", "value": 34.9, "unit": "%"}]}
{"smiles": "O=C(N[C@@H]1CN2CCC1CC2)c1cccc2oc(C3CCCCC3)nc12", "note": "[Example 16, (S)—N-(1-Azabicyclo[2.2.2]oct-3-yl)-2-cyclohexylbenzoxazole-4-carboxamide Hydrochloride]", "values": [{"measurement": "inhibition at 0.1 µM", "setting": "[2]; [4]", "value": 94.1, "unit": "%"}]}
{"smiles": "O=C(N[C@@H]1CN2CCC1CC2)c1cccc2oc(CN3CCOCC3)nc12", "note": "[Example 38, (S)—N-(Azabicyclo[2.2.2]oct-3-yl)-2-(morpholinomethyl)benzoxazole-4-carboxamide Hydrochloride]", "values": [{"measurement": "inhibition at 10 µM", "setting": "[1]; Assay B, 10 μM", "value": 74, "unit": "%"}]}
{"smiles": "CC(=O)N1CCC(c2nc3c(C(=O)N[C@@H]4CN5CCC4CC5)cccc3o2)CC1", "note": "[Example 31, (S)—N-(1-Azabicyclo[2.2.2]oct-3-yl)-2-(1-acetylpiperidin-4-yl)benzoxazole-4-carboxamide Hydrochloride]", "values": [{"measurement": "Ki", "setting": "[1]; [3]", "value": 356, "unit": "nM"}]}
{"smiles": "CCN(CC)Cc1nc2c(C(=O)NC3CN4CCC3CC4)cccc2o1", "note": "[Example 40, (S)—N-(Azabicylco[2.2.2]oct-3-yl)-2-(diethylaminomethyl)benzoxazole-4-carboxamide Hydrochloride]", "values": [{"measurement": "Ki", "setting": "[1]; [3]", "value": 129, "unit": "nM"}]}
{"smiles": "O=C(N[C@@H]1CN2CCC1CC2)c1cccc2oc(C3CCNCC3)nc12", "note": "[Example 28, (S)—N-(1-Azabicyclo[2.2.2]oct-3-yl)-2-(piperidin-4-yl)benzoxazole-4-carboxamide Dihydrochloride]", "values": [{"measurement": "Ki", "setting": "[1]; [3]", "value": 111, "unit": "nM"}]}
{"smiles": "O=C(NC1CC2CCCC(C1)N2)c1cccc2oc(C3CC3)nc12", "note": "(stereo not drawn) [Example 36, N-(9-Azabicyclo[3.3.1]non-3-yl)-2-cyclopropylbenzoxazole-4-carboxamide Hydrochloride]", "values": [{"measurement": "Ki", "setting": "[1]", "value": 6.3, "unit": "nM"}]}
{"smiles": "O=C(N[C@@H]1CN2CCC1CC2)c1cccc2oc(C3CCCC3)nc12", "note": "[Example 6, (S)—N-(1-Azabicyclo[2.2.2]oct-3-yl)-2-cyclopentylbenzoxazole-4-carboxamide Hydrochloride]", "values": [{"measurement": "inhibition at 0.1 µM", "setting": "[2]; [4]", "value": 90.2, "unit": "%"}]}
{"smiles": "CN1[C@@H]2CCC[C@H]1C[C@@H](NC(=O)c1cccc3oc(C45CCN(CC4)CC5)nc13)C2", "note": "[Example 26, Endo-N-(9-Methyl-9-azabicyclo[3.3.1]nonan-3-yl)-2-(quinuclidin-4-yl)benzoxazole-4-carboxamide Dihydrochloride]", "values": [{"measurement": "Ki", "setting": "[1]; [3]", "value": 173, "unit": "nM"}]}
{"smiles": "CN1C2COCC1CC(NC(=O)c1cccc3oc(C4CCCC4)nc13)C2", "note": "(stereo not drawn) [Example 32, N-(9-methyl-3-oxa-9-azabicyclo[3.3.1]non-7-yl)-2-(cyclopentyl-4-yl)benzoxazole-4-carboxamide Hydrochloride]", "values": [{"measurement": "Ki", "setting": "[1]", "value": 81.9, "unit": "nM"}]}
{"smiles": "CN1CCC(c2nc3c(C(=O)N[C@@H]4CN5CCC4CC5)cccc3o2)CC1", "note": "[Example 30, (S)—N-(1-Azabicyclo[2.2.2]oct-3-yl)-2-(1-methylpiperidin-4-yl)benzoxazole-4-carboxamide Dihydrochloride Dihydrochloride]", "values": [{"measurement": "Ki", "setting": "[1]", "value": 83, "unit": "nM"}]}
{"smiles": "CN1[C@@H]2CCC[C@H]1C[C@@H](NC(=O)c1cccc3oc(C4CCNCC4)nc13)C2", "note": "[Example 27, Endo-N-(9-methyl-9-azabicyclo[3.3.1]non-3-yl)-2-(piperidin-4-yl)benzoxazole-4-carboxamide Dihydrochloride]", "values": [{"measurement": "Ki", "setting": "[1]", "value": 41, "unit": "nM"}]}
{"smiles": "C[C@H]1OC(=O)N(C)C1c1nc2c(C(=O)NC3CC4CCCC(C3)N4C)cccc2o1", "note": "(stereo partly drawn) [Example 42, Endo-N-(9-methyl-9-azabicyclo[3.3.1]nonan-3-yl)-2-((4S,5R/4R,5S)-3,5-dimethyl-2-oxo-oxazolidin-4-yl)benzoxazole-4-carboxamide]", "values": [{"measurement": "Ki", "setting": "[1]", "value": 24.9, "unit": "nM"}]}
{"smiles": "CN1CCC(c2nc3c(C(=O)N[C@H]4C[C@H]5CCC[C@@H](C4)N5C)cccc3o2)CC1", "note": "[Example 29, Endo-N-(9-methyl-9-azabicyclo[3.3.1]non-3-yl)-2-(1-methylpiperidin-4-yl)benzoxazole-4-carboxamide Dihydrochloride]", "values": [{"measurement": "Ki", "setting": "[1]", "value": 28, "unit": "nM"}]}
{"smiles": "CN1[C@@H]2CCC[C@H]1C[C@@H](NC(=O)c1cccc3oc(CN4CCOCC4)nc13)C2", "note": "[Example 39, Endo-N-(9-Methyl-9-azabicyclo[3.3.1]nonan-3-yl)-2-(morpholinomethyl)benzoxazole-4-carboxamide Hydrochloride]", "values": [{"measurement": "Ki", "setting": "[1]", "value": 77.1, "unit": "nM"}]}
{"smiles": "CN1C2CCCC1CC(NC(=O)c1cccc3oc(C4CCCCC4)nc13)C2", "note": "(stereo not drawn) [Example 15, Endo-N-(9-Methyl-9-azabicyclo[3.3.1]non-3-yl)-2-cyclohexylbenzoxazole-4-carboxamide Hydrochloride]", "values": [{"measurement": "inhibition at 0.1 µM", "setting": "[2]; [4]", "value": 105, "unit": "%"}]}
